According to PubChem BioAssay (NCI):
Several values for one entry are separate records, joined by “and”; a condition that tells them apart may be missing. Identical values can stand only once.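 48-hour exposure; five concentrations; linearly interpolated endpoints. GI50 is the concentration that inhibits growth by half. TGI denotes the concentration required for complete inhibition of growth.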

Legend:
Experiment in all cases: inhibition of tumour cell growth, NCI panel, 48 h
[1] = system: SK-MEL-28 melanoma
[2] = system: KM12 colon
[3] = system: NCI-H460 lung
[4] = system: BT-549 breast
[5] = system: SF-295 CNS
[6] = system: EKVX NSCLC
[7] = system: LOX IMVI melanoma
[8] = system: SNB-19 CNS
[9] = system: M14 melanoma
[10] = system: NCI-H226 lung

| SMILES | TGI [1] | TGI [2] | TGI [3] | TGI [4] | TGI [5] | TGI [6] | TGI [7] | TGI [8] | TGI [9] | TGI [10] | GI50 [1] | GI50 [2] | GI50 [3] | GI50 [4] | GI50 [5] | GI50 [6] | GI50 [7] | GI50 [8] | GI50 [9] | GI50 [10] |
| --- | --- | --- | --- | --- | --- | --- | --- | --- | --- | --- | --- | --- | --- | --- | --- | --- | --- | --- | --- | --- |
| CCc1[nH]c(=O)nc(N)c1-c1ccc(N2CCCCC2)c([N+](=O)[O-])c1 | > 100 µM | > 100 µM | > 100 µM | > 100 µM | > 100 µM | > 100 µM | > 100 µM | > 100 µM | > 100 µM | > 100 µM | – | – | – | – | – | – | – | – | – | – |
| CCOC(=O)c1c(CN2CCN(c3ccccc3)CC2)n(-c2ccccc2)c2cc(Br)c(O)cc12 | 42.1 µM | 39.9 µM | 21.3 µM | 23.9 µM | 24.3 µM | 36.1 µM | 11.1 µM | 53.5 µM | 41.6 µM | 30.9 µM | 16.6 µM | 8.49 µM | 3.61 µM | 8.64 µM | 4.7 µM | 11.2 µM | 3.1 µM | 21 µM | 15 µM | 15.4 µM |
| CCN(CC)c1ccc(C(=N)c2ccc(N(CC)CC)cc2)cc1 | 2.81 µM | 1.52 µM | 1.56 µM | 5.78 µM | 2.02 µM | 11.8 µM | 2.02 µM | 8.09 µM | 1.83 µM | 2.57 µM | 0.916 µM | 0.366 µM | 0.411 µM | 1.16 µM | 0.438 µM | 0.868 µM | 0.598 µM | 0.917 µM | 0.524 µM | 0.669 µM |
| Cc1cc(SCC(=O)c2ccccc2)nc2ccccc12 | > 100 µM | > 100 µM | > 100 µM | > 100 µM | > 100 µM | > 100 µM | > 100 µM | > 100 µM | > 100 µM | > 100 µM | – | – | – | – | – | – | – | – | – | – |
| O=C(N/N=C/c1cccc(O)c1O)c1ccccc1 | > 100 µM | > 100 µM | > 100 µM | > 73 µM | > 100 µM | – | > 100 µM | > 100 µM | 11.5 µM | > 30.2 µM | 1.24 µM | 0.769 µM | 0.878 µM | 1.84 µM | 2.28 µM | – | 0.511 µM | 1.46 µM | 0.695 µM | 3.22 µM |
| O=C(Nc1ccc(Cl)cc1)c1cc(-c2ccc(F)cc2)c2sc(=O)[nH]c2n1 | 10.1 µM | 6.04 µM | 4.29 µM | 6.88 µM | 3.8 µM | 6.11 µM | 4.43 µM | 16.2 µM | 5.13 µM | 3.93 µM | 1.39 µM | 1.81 µM | 1.73 µM | 1.73 µM | 1.1 µM | 1.64 µM | 1.68 µM | 2.73 µM | 1.88 µM | 1.11 µM |
| CCOC(=O)Sc1ncnc2nc[nH]c12 | > 100 µM | > 100 µM | > 100 µM | > 100 µM | > 100 µM | > 100 µM | > 100 µM | > 100 µM | > 100 µM | > 100 µM | 43.7 µM | 4.03 µM | 5.75 µM | 9.92 µM | 2.43 µM | 38.5 µM | 0.348 µM | 85 µM | 0.408 µM | 4.46 µM |
| NC(=S)N/N=C/c1ccc(OC(=O)COc2ccc(Cl)cc2)cn1 | > 100 µM | > 100 µM | 18.9 µM | > 100 µM | > 100 µM | > 100 µM | > 100 µM | > 100 µM | 15.6 µM | 48.9 µM | 36.4 µM | 3.18 µM | 3.91 µM | 4.74 µM | 20.8 µM | 30.9 µM | 3.18 µM | 20.9 µM | 3.51 µM | 13.4 µM |
| CC1CN1CC(O)C(O)CN1CC1C (centres undefined) | 97.4 µM | 23 µM | 13 µM | 87.1 µM | > 33.4 µM | > 80.6 µM | 11.4 µM | > 100 µM | 28.7 µM | 50.1 µM | 17.5 µM | 7.37 µM | 0.319 µM | 6.43 µM | 0.494 µM | 13.8 µM | 0.814 µM | 6.21 µM | 2.16 µM | 5.23 µM |
| c1ccc(C2=NNC3c4ccccc4-c4ccccc4N3C2)cc1 (centres undefined) | > 100 µM | > 100 µM | 53.3 µM | > 100 µM | > 100 µM | > 100 µM | > 100 µM | > 100 µM | > 100 µM | 71.7 µM | – | – | – | – | – | – | – | – | – | – |
| CCC1(O)C(=O)OCc2c1cc1n(c2=O)Cc2cc3ccc(C=O)cc3nc2-1 (centres undefined) | 50 µM and > 100 µM | 29.7 µM and > 100 µM | 6.59 µM and 26.4 µM | 29.8 µM and 59.6 µM | 50 µM and 52.6 µM | 50 µM and > 100 µM | 7.8 µM and 5.58 µM | 50 µM and > 100 µM | 50 µM and 19.2 µM | 13.9 µM and 7.4 µM | 11.2 µM | 4.83 µM | 0.301 µM | 4.56 µM | 2.07 µM | 15.1 µM | 0.403 µM | 1.67 µM | 1.44 µM | 1.76 µM |
| NCCCC[C@@H]1NC(=O)[C@H]2CCCN2C(=O)[C@H](Cc2ccccc2)NC(=O)[C@H](Cc2ccccc2)CNC1=O | > 100 µM | > 100 µM | > 100 µM | > 100 µM | > 100 µM | > 100 µM | > 100 µM | > 100 µM | > 100 µM | > 100 µM | > 100 µM | > 100 µM | > 100 µM | > 100 µM | > 100 µM | > 100 µM | > 100 µM | > 100 µM | > 100 µM | > 100 µM |
| Clc1nc(Cl)c2ncn(Cc3cccc(COc4cccc(OCc5cccc(Cn6cnc7c(Cl)nc(Cl)nc76)c5)c4)c3)c2n1 | > 100 µM | > 100 µM | > 100 µM | > 100 µM | > 100 µM | > 100 µM | > 100 µM | > 100 µM | > 100 µM | 27.5 µM | 90.3 µM | 34.6 µM | > 100 µM | 14.1 µM | > 100 µM | > 100 µM | 23.9 µM | > 100 µM | 26.1 µM | 4.97 µM |
| CCCCN=C(N)c1ccc(OCCSCCOc2ccc(C(N)=NCCCC)cc2)cc1 | > 100 µM | 19.9 µM | > 100 µM | 13.3 µM | 53.8 µM | > 100 µM | > 100 µM | – | > 100 µM | > 100 µM | 20 µM | 3.62 µM | 3.17 µM | 1.97 µM | 2.73 µM | 0.96 µM | 9.46 µM | – | 28.4 µM | 65.4 µM |
| COc1cc(NC(=O)c2cc(O)c(CC=C(C)C)c(O)c2)cc2c1O[C@]1(C)CC[C@@H](O)C(C)(C)[C@H]1C2 | 16.8 µM | 18.4 µM | 19.2 µM | 13.5 µM | 3.85 µM | 48.2 µM | 19.1 µM | 21 µM | 13.5 µM | 31.7 µM | 2.31 µM | 4.12 µM | 3.65 µM | 0.819 µM | 1.25 µM | 5.96 µM | 3.07 µM | 3.68 µM | 2.94 µM | 11.2 µM |
| COc1cc(C2=NN(C(C)=O)C(c3ccc(OC(C)=O)cc3OC(C)=O)O2)c(OC(C)=O)c2ccccc12 (centres undefined) | 23.2 µM | 27.3 µM | > 33.4 µM | 47.6 µM | 23.8 µM | – | 11.7 µM | > 75.3 µM | 7.15 µM | 14.4 µM | 1.27 µM | 1.02 µM | 1.15 µM | 1.87 µM | 1.68 µM | – | 0.374 µM | 1.19 µM | 0.582 µM | 1.15 µM |
| COc1cc[nH]c1/C=C1\C(=O)Nc2ccccc21 | > 25 µM | > 25 µM | > 25 µM | > 25 µM | > 25 µM | – | > 25 µM | > 25 µM | > 25 µM | > 25 µM | 16 µM | 0.948 µM | 8.85 µM | 7.98 µM | > 25 µM | – | 7.68 µM | > 25 µM | 4.98 µM | 7.14 µM |
| O=C1c2ccccc2-c2c1c1ccccc1c(=O)n2Cc1ccccc1 | > 100 µM | > 100 µM | – | > 100 µM | > 100 µM | > 100 µM | > 100 µM | – | > 100 µM | > 100 µM | – | – | – | – | – | – | – | – | – | – |
| COC(=O)C(=O)C(C(=O)C(=O)Nc1ccccc1C(N)=O)c1nc2ccc(Cl)cc2[nH]c1=O (centres undefined) | > 100 µM | > 100 µM | > 100 µM | > 100 µM | > 100 µM | – | > 100 µM | > 100 µM | > 100 µM | > 100 µM | – | – | – | – | – | – | – | – | – | – |
| Fc1cc(F)c(COc2cc(Cn3cnc4c(Cl)nc(Cl)nc43)ccc2C23CC4CC(CC(C4)C2)C3)cc1F | 37.4 µM | 32.6 µM | 37.5 µM | 24.5 µM | 34 µM | 50.8 µM | 3.91 µM | 31.7 µM | – | 4.51 µM | 18.2 µM | 17.2 µM | 19.4 µM | 11 µM | 18 µM | 23.3 µM | 1.76 µM | 17.5 µM | – | 2.15 µM |
| COc1ccc(C(C)c2cc3c(cc2OC)OCO3)cc1 (centres undefined) | > 100 µM | > 41 µM | 4.69 µM | > 100 µM | – | > 100 µM | 27.3 µM | > 100 µM | 24.5 µM | 20.6 µM | – | – | – | – | – | – | – | – | – | – |
| O=C1NC(=O)c2ccc([N+](=O)[O-])c3cccc1c23 | 37.8 µM | – | 29.7 µM | 33.7 µM | 32.8 µM | 62.4 µM | – | 33.7 µM | 28.4 µM | 43.6 µM | – | – | – | – | – | – | – | – | – | – |
